Experiments:
Hela cells [1] = test: Transfection of Hela cell line, DNA vectors; format: cell-based; conditions: 75 ng plasmid DNA, GFP cells / total cells
Description: 1. The compound (0.01 mmol) prepared in Example 1 was dissolved in 1 mL of anhydrous ethanol. After ultrasonically dissolved, 10 μL of the resultant amino lipid solution in ethanol was taken and mixed with 5 μL of DOPE solution in ethanol (0.01 m), and then to the obtained mixture was added 35 μL of 0.2M sodium acetate buffer (pH 5.6), and 50 μL of liposome solution was prepared by vortex at a constant rotating speed for 30 s. 4 μL was taken from the 50 μL liposome solution and added to 46 μL of 0.02M sodium acetate buffer (pH 5.6), and the final liposome solution was formed by vortex at a constant rotating speed for 30 s. 5 μL was taken from the final liposome solution and mixed with 75 ng plasmid DNA (psin-EGFP-IRES-Puro, Clontech) dissolved in 5 μL of 0.02 M sodium acetate buffer, and was allowed to stay at room temperature for 30 min to form a lipid/DNA transfection complex.
2. 10 μL of the lipid/DNA transfection complex was incubated at room temperature for 30 min, followed by addition of 90 μL of fresh resuspended cells (3-5×10^4 cells) and mixing with a pipette. 100 μL of cells+lipid/DNA complex was transferred to separate wells of a 96-well culture plate immediately, and placed in an incubator containing 5% CO2 at 37° C.
3. Hoechst33258 (Invitrogen) was added at a final concentration of 0.2 μg/mL to the cells 20 to 24 hours after initial cell transfection, and cultured in darkness at 37° C. for 15 min. Afterwards, the cells were washed once with a PBS solution, and then added with medium for culture for 20 to 24 h.
4. The cells were placed in a high-throughput confocal microscope (Molecular Devices ImageXpress), and four visual fields of the image of the cells were captured for each well, and images at three laser wavelengths were captured for each sample: bright field images of cells (FIG. 2(a) and FIG. 2(b)), Hoechst-staining images showing total nuclei (FIG. 2(c) and FIG. 2(d)) and GFP images showing success in transfection with the plasmid DNA and the expression of GFP (FIG. 2(e) and FIG. 2(f)). MetaXpress software was used to separately count the cells in the Hoechst-staining images and GFP images, and then the number of cells expressing GFP was divided by the total number of nuclei to give the absolute cell transfection efficiency. The absolute transfection efficiency was calculated as follows: […]
(§1) Cell line: Hela cells (ATCC 35241)
(§2) Medium: DMEM supplemented with 10% fetal bovine serum (Invitrogen)
(§3) Screening: cell transfection on 96-well plates
(§4) Detection (readout): percentage of the number of GFP fluorescent cells relative to the total number of cells (the total number of cells was determined using nucleus dye Hoechst). Lipofectamine2000 (Invitrogen) was used as the positive control, according to the manufacturer's instructions.
Method: the experimental method was basically the same with Example 4.

Hela cells [2] = test: Transfection of Hela cell line, mRNA vectors; format: cell-based; conditions: 50 ng EGFP mRNA per well
Description: as §1, §2, §3
as §4, with “Hoechst). A commercially available liposome transfection reagent” for “Hoechst).”, “control group,” for “control,”
Method: the experimental method was basically the same with Example 4, and the mass of EGFP mRNA for transfection was 50 ng per well.

Row | SMILES | Absolute DNA transfection efficiency in Hela cells (Hela cells [1]) [%] | Absolute mRNA transfection efficiency in Hela cells (Hela cells [2]) [%]
1 | CCCCCCCCCCCSc1nc(NCCN(C)C)nc(SCCCCCCC)n1 [Compound S7S11D1] | 5.9 | 5.9
2 | CCCCCCCCCCCSc1nc(NCCN2CCOCC2)nc(SCCCCCCC)n1 [Compound S7S11D2] | 13.6 | 13.6
3 | CCCCCCCCCCCSc1nc(NCCN2CCCCC2)nc(SCCCCCCC)n1 [Compound S7S11D4] | 7.9 | 7.9
4 | CCCCCCCCCCCSc1nc(NCCN(CC)CC)nc(SCCCCCCC)n1 [Compound S7S11D7] | 5.2 | 5.2
5 | CCCCCCCCCCCCSc1nc(NCCN(C)C)nc(SCCCCCCC)n1 [Compound S7S12D1] | 4.2 | 4.1
6 | CCCCCCCCCCCCSc1nc(NCCN2CCOCC2)nc(SCCCCCCC)n1 [Compound S7S12D2] | 9.2 | 9.2
7 | CCCCCCCCCCCCSc1nc(NCCN2CCCCC2)nc(SCCCCCCC)n1 [Compound S7S12D4] | 4.7 | 4.7
8 | CCCCCCCCCCCCSc1nc(NCCN(CC)CC)nc(SCCCCCCC)n1 [Compound S7S12D7] | 3.5 | 3.5
9 | CCCCCCCCCCCNc1nc(NCCN(C)C)nc(SCCCCCCCC)n1 [Compound S8N11D1] | 21.12 | 21.2
10 | CCCCCCCCCCCNc1nc(NCCN2CCOCC2)nc(SCCCCCCCC)n1 [Compound S8N11D2] | 12.7 | 12.7
11 | CCCCCCCCCCCNc1nc(NCCN2CCCCC2)nc(SCCCCCCCC)n1 [Compound S8N11D4] | 7.6 | 7.6
12 | CCCCCCCCCCCNc1nc(NCCN(CC)CC)nc(SCCCCCCCC)n1 [Compound S8N11D7] | 12.2 | 12.3
13 | CCCCCCCCCCCCNc1nc(NCCN(C)C)nc(SCCCCCCCC)n1 [Compound S8N12D1] | 11.5 | 11.5
14 | CCCCCCCCCCCCNc1nc(NCCN2CCOCC2)nc(SCCCCCCCC)n1 [Compound S8N12D2] | 19.3 | 19.3
15 | CCCCCCCCCCCCNc1nc(NCCN2CCCCC2)nc(SCCCCCCCC)n1 [Compound S8N12D4] | 3.81 | 3.8
16 | CCCCCCCCCCCCNc1nc(NCCN(CC)CC)nc(SCCCCCCCC)n1 [Compound S8N12D7] | 4.7 | 4.7
17 | CCCCCCCCCCCCCNc1nc(NCCN(C)C)nc(SCCCCCCCC)n1 [Compound S8N13D1] | 9.7 | 9.7
18 | CCCCCCCCCCCCCNc1nc(NCCN2CCOCC2)nc(SCCCCCCCC)n1 [Compound S8N13D2] | 9.83 | 9.8
19 | CCCCCCCCCCCCCNc1nc(NCCN2CCCCC2)nc(SCCCCCCCC)n1 [Compound S8N13D4] | 1.8 | 1.8
20 | CCCCCCCCCCCCCNc1nc(NCCN(CC)CC)nc(SCCCCCCCC)n1 [Compound S8N13D7] | 4.5 | 4.5
21 | CCCCCCCCCCCSc1nc(NCCN(C)C)nc(SCCCCCCCC)n1 [Compound S8S11D1] | 4.59 | 4.9
22 | CCCCCCCCCCCSc1nc(NCCN2CCOCC2)nc(SCCCCCCCC)n1 [Compound S8S11D2] | 8.9 | 8.6

Row | SMILES | Absolute DNA transfection efficiency in Hela cells (Hela cells [1]) [%] | Absolute mRNA transfection efficiency in Hela cells (Hela cells [2]) [%]
23 | CCCCCCCCCCCSc1nc(NCCN2CCCCC2)nc(SCCCCCCCC)n1 [Compound S8S11D4] | 4.5 | 4.5
24 | CCCCCCCCCCCSc1nc(NCCN(CC)CC)nc(SCCCCCCCC)n1 [Compound S8S11D7] | 5.7 | 5.7
25 | CCCCCCCCCCCCSc1nc(NCCN(C)C)nc(SCCCCCCCC)n1 [Compound S8S12D1] | 5.4 | 5.4
26 | CCCCCCCCCCCCSc1nc(NCCN2CCOCC2)nc(SCCCCCCCC)n1 [Compound S8S12D2] | 8.7 | 8.7
27 | CCCCCCCCCCCCSc1nc(NCCN2CCCCC2)nc(SCCCCCCCC)n1 [Compound S8S12D4] | 5.4 | 5.4
28 | CCCCCCCCCCCCSc1nc(NCCN(CC)CC)nc(SCCCCCCCC)n1 [Compound S8S12D7] | 4.6 | 4.6
29 | CCCCCCCCCNc1nc(NCCN(C)C)nc(SCCCCCCCCC)n1 [Compound S9N9D1] | 17.7 | 17.7
30 | CCCCCCCCCNc1nc(NCCN2CCOCC2)nc(SCCCCCCCCC)n1 [Compound S9N9D2] | 12.0 | 12.0
31 | CCCCCCCCCNc1nc(NCCN2CCCCC2)nc(SCCCCCCCCC)n1 [Compound S9N9D4] | 8.9 | 8.9
32 | CCCCCCCCCNc1nc(NCCN(CC)CC)nc(SCCCCCCCCC)n1 [Compound S9N9D7] | 24.8 | 24.8
33 | CCCCCCCCCCCNc1nc(NCCN(C)C)nc(SCCCCCCCCC)n1 [Compound S9N11D1] | 17.7 | 17.7
34 | CCCCCCCCCCCNc1nc(NCCN2CCOCC2)nc(SCCCCCCCCC)n1 [Compound S9N11D2] | 8.2 | 8.2
35 | CCCCCCCCCCCNc1nc(NCCN2CCCCC2)nc(SCCCCCCCCC)n1 [Compound S9N11D4] | 4.4 | 4.4
36 | CCCCCCCCCCCNc1nc(NCCN(CC)CC)nc(SCCCCCCCCC)n1 [Compound S9N11D7] | 7.8 | 7.8
37 | CCCCCCCCCCCCNc1nc(NCCN(C)C)nc(SCCCCCCCCC)n1 [Compound S9N12D1] | 19.7 | 19.6
38 | CCCCCCCCCCCCNc1nc(NCCN2CCOCC2)nc(SCCCCCCCCC)n1 [Compound S9N12D2] | 6.5 | 6.5
39 | CCCCCCCCCCCCNc1nc(NCCN2CCCCC2)nc(SCCCCCCCCC)n1 [Compound S9N12D4] | 4.1 | 4.1
40 | CCCCCCCCCCCCNc1nc(NCCN(CC)CC)nc(SCCCCCCCCC)n1 [Compound S9N12D7] | 6.8 | 6.8
41 | CCCCCCCCCCCSc1nc(NCCCCCCC)nc(NCCN(C)C)n1 [Compound S11N7D1] | 13.9 | 13.9
42 | CCCCCCCCCCCSc1nc(NCCCCCCC)nc(NCCN2CCOCC2)n1 [Compound S11N7D2] | 5.8 | 5.8
43 | CCCCCCCCCCCSc1nc(NCCCCCCC)nc(NCCN2CCCCC2)n1 [Compound S11N7D4] | 2.3 | 2.3
